In PubChem BioAssay AID1595 (NINDS Approved Drug Screening Program, 2009):
Results filed as inconclusive are left out.

tested on: Drosophila SCA1 polyglutamine model, toxicity suppression; experiment: Drosophila SCA1 whole organism dose response for polyglutamine toxicity reduction (AID 1595)

| Structure (SMILES) | EC50 |
| --- | --- |
| C[C@@H]1CC2C3CCC4=CC(=O)C=C[C@]4(C)[C@@]3(F)[C@@H](O)C[C@]2(C)[C@@]1(O)C(=O)COP(=O)(O)O (some centres undefined) | 750 nM |
| CC(N)CCCC(C)(C)O (centres undefined) | 50 nM |
| CC(=O)OCC(=O)[C@H]1CCC2C3CCC4=CC(=O)CC[C@]4(C)C3CC[C@@]21C (some centres undefined) | 3000 nM |
| C[N+](C)(C)CC(=O)[O-] | 3000 nM |
| CCCCCCCCCCCCCCCC(=O)OC/C=C(C)/C=C/C=C(C)/C=C/C1=C(C)CCCC1(C)C | 275 nM |
| Cc1cc(C(C)(C)C)cc(C)c1CC1=NCCN1 | 250 nM |
| C[N+](C)(C)CCOC(N)=O | 3000 nM |
| N#C/C(=C\c1ccc(O)cc1)C(=O)O | 50 nM |
| C[C@@H]1O[C@@H](O[C@H]2[C@H](Oc3cc(O)c4c(c3)O[C@H](c3ccc(O)cc3)CC4=O)O[C@H](CO)[C@@H](O)[C@@H]2O)[C@H](O)[C@H](O)[C@H]1O | 5000 nM |
| NC(Cc1cc(I)c(Oc2ccc(O)c(I)c2)c(I)c1)C(=O)O (centres undefined) | 5000 nM |
| CN1CCOC(c2ccccc2)c2ccccc2C1 (centres undefined) | 50 nM |
| OCC(S)CS (centres undefined) | 300 nM |
| NS(=O)(=O)c1cc(C2(O)NC(=O)c3ccccc32)ccc1Cl (centres undefined) | 5000 nM |
| C=C1C2CC[C@H]3[C@]4(C)C[C@H](OC5OC(CO)C(OS(=O)(=O)O)C(OS(=O)(=O)O)C5OC(=O)CC(C)C)C[C@@H](C(=O)O)[C@H]4CC[C@]3(C2)[C@H]1O (some centres undefined) | 225 nM |
